Laboratory results published in patent publication US7537765B2, “Inhibition of HIV-1 replication by disruption of the processing of the viral capsid-spacer peptide 1 protein” (priority 2003, dated 2009).

Legend:
[1] = tested on: NL4-3 A366V/G357S double mutant; experiment: Virus replication assay of re-engineered NL4-3 mutants in Jurkat T cells (reverse transcriptase activity); assay type: cell-based, HIV-1
Procedure: In order to more extensively map the viral genetic determinants for DSB resistance, additional experiments were performed to select for viruses in vitro that are drug resistant. Multiple parallel cultures of Jurkat T cells (5×10^5 each) were transfected with the proviral DNA clone pNL4-3 in the presence or absence of 10-50 ng/ml DSB. The cells were passaged every two days, and fresh drug was added at each passage. Virus replication was monitored by measuring reverse transcriptase activity in culture supernatants. Virus was isolated from culture supernatants harvested at selected timepoints, and genomic DNA was amplified by RT-PCR using primers that spanned the coding region between the N-terminus of CA and the N-terminus of RT. The amplified product was then sequenced using the same set of primers.
In one experiment, an A366V mutation was identified in the SP1 region of NL4-3 virus cultured in the presence of DSB (note: numbering is relative to the Gag polyprotein). Upon further passaging, a double mutant was identified that contained a G357S mutation in CA as well as the A366V mutation in SP1. The A366V mutation was identified previously in experiments selecting for resistant variants of the RF isolate. […] Since serine is present at this position in isolates (such as RF) that are sensitive to DSB, the CA G357S mutation alone is not sufficient to confer resistance to DSB. […]

SIVmac239 chimeric virus = experiment: Gag processing of SIVmac239 chimeric mutants with HIV-1 CA-SP1 residues (Western blot); assay type: cell-based; conditions: SIV DM chimeric virus (printed SWV.DM), 1 μg/ml
From the text: A panel of SIV chimeric constructs harboring various residues of NL4-3 CA-SP1 boundary region was generated using the SIVmac239 molecular clone by employing PCR and cloning procedures described above. SIV mac239 was used to generate the SIV DD and DE constructs. The SIV DD construct was used to generate SIV DM. Different SIV chimeric constructs were produced in the PCR by varying respective mutagenic upstream and downstream primers corresponding to each chimera (Table 1). Each of these parallel two adjacent PCR fragments was gel purified and directly used without phospohorylation treatment for a subsequent amplification with universal upstream primer (Primer. 31) and downstream primer (Primer 32). This product was gel purified, digested with BamHI and SbfI, and then ligated into the BamHI and SbfI sites of SIVmac239 proviral DNA clone. The proviral DNA clones were then screened by automatically sequencing using a Taq Dye Deoxy Terminator cycle Sequencer Kit (Applied Biosystems) individually using an internal primer (Primer. 39). Following the verification the mutations the proviral DNA clones were used for various future studies. […]
Residues A364 through V370 were inserted into the analogous position of the Gag SP1 domain in the DSB-resistant retrovirus SIV (Mac 239 isolate). […] Next, the effect of DSB on the Gag processing phenotype of each of the chimeric viruses was determined. […]

HIV-1 protease = HIV-1 protease (Human immunodeficiency virus type 1 group M subtype B, UniProt P12497); experiment: Cell-free fluorometric protease assay, synthetic peptide substrate; assay type: biochemical; design: DSB had no effect on HIV-1 protease function using a cell-free fluorometric assay; conditions: concentrations up to 50 μg/mL
Procedure: It was previously determined that DSB had no effect on HIV-1 protease function using a cell-free fluorometric assay that characterized enzyme activity by following the cleavage of a synthetic peptide substrate. […] As a result of the observation that DSB blocks virus replication at a late step, studies were also performed using a recombinant form of the Gag protein, which is a more relevant system than the synthetic peptide substrate used in the initial assays.

Structure (SMILES): C=C(C)[C@@H]1CC[C@]2(C(=O)O)CC[C@]3(C)[C@H](CC[C@@H]4[C@@]5(C)CC[C@H](OC(=O)CC(C)(C)C(=O)O)C(C)(C)[C@@H]5CC[C@]43C)[C@@H]12 [DSB, 3-O-(3′,3′-dimethylsuccinyl)betulinic acid]
- virus replication [1]: replicated efficiently in the absence or presence of DSB
- Gag processing phenotype (SIVmac239 chimeric virus): indicative of sensitivity to DSB
- effect on HIV-1 protease function (HIV-1 protease): no effect on protease function
